Results: patent US20040049086A1, “Diphenol and process for producing the same” (priority 2001, published 2004)

SMILES	melting point [°C]
Cc1cc(-c2ccc(-c3ccc(O)cc3)cc2)ccc1O [Example 1 of Example C, 4-hydroxy-3″-methyl-4″-hydroxy-p-terphenyl]	251.4
Cc1cc(C2=CCC(c3ccc(O)cc3)CC2)cc(C)c1O (stereo not drawn) [Example 5 of Example A, 1-(3,5-dimethyl-4-hydroxyphenyl)-4-(4-hydroxyphenyl)-1-cyclohexene]	224
Cc1cc(-c2ccc(-c3ccc(O)cc3)cc2)cc(C)c1O [Example 2 of Example C, 4-hydroxy-3″,5″-dimethyl-4″-hydroxy-p-terphenyl]	231

Now from value to compound:

melting point [°C]	SMILES
201	Cc1cc(C2=CCC(c3ccc(O)cc3)CC2)ccc1O (stereo not drawn) [Example 2 of Example A, 1-(3-methyl-4-hydroxyphenyl)-4-(4-hydroxyphenyl)-1-cyclohexene]
188	CC(C)(C)c1cc(C2=CCC(c3ccc(O)cc3)CC2)ccc1O (stereo not drawn) [Example 4 of Example A, 1-(3-t-butyl-4-hydroxyphenyl)-4-(4-hydroxyphenyl)-1-cyclohexene]
159	Cc1cc(C2CCC(c3ccc(O)cc3)CC2)ccc1O (stereo not drawn) [Example 1 of Example B, 4-(4′-(4″-hydroxyphenyl)cyclohexyl)-2-methyl-1-hydroxybenzene]
